The values that follow come from patent publication US20050209157A1, “Short bioactive peptides and methods for their use” (priority 2001, published 2005).

One series deals with cancer cell lines. Description: Anti-cancer assays, MTT, summary over the cancer cell lines. The format is cell-based. Conditions: X = preferred.
Series [1] has as its system Escherichia coli ATCC 25922. Description: Antimicrobial assay I, modified protocol (tryptic soy broth), MBC. Particulars: minimum bactericidal concentration, Table 4.
The test system of series [2] is Pseudomonas aeruginosa ATCC 27853. The series is described as above. Conditions: minimum bactericidal concentration, Table 4.
Series [3] concerns Stapholococcus aureus ATCC 25923. Described as above. Conditions: minimum bactericidal concentration, Table 4.
Series [4] can be described thus: in vitro. Conditions: human, WI38 normal lung fibroblast cells, WI-38 LD50, Table 26, valine substitution.
Series [5] in a line: in vitro. The format is cell-based, human. Conditions: human, human red blood cells, pH 7, Table 26, valine substitution; read-out: Hemolysis RBC LD50.
For series [6], the system named is Candida albicans ATCC 10231. Kind of series: Antimicrobial assay I, modified protocol (tryptic soy broth), MFC. Conditions: minimum fungicidal concentration, Table 4.
In a further series the test system is fungal. Description: Presently preferred antifungal peptides, selected from the MIC/MBC data. Format: cell-based. Conditions: X = preferred. The text has this: The peptide's “length” is the number of amino acid residues in the sequence.

Values after ≈ are worked out from the molar mass of the structure shown. Non-standard residues stand in square brackets, D forms with d. Residues, ends and D or L forms follow the SMILES beside them. No end group written: not given here.

In general, CC50 refers to the concentration at which the toxic effect on the cells reaches its halfway point. Take FAKKLAKLAKKLLAL-NH2 [compound 38]: in the series on cancer cell lines, the “Anti-cancer (preferred peptide)” value is on record as “X (Preferred anticancer peptides can be selected as having LD50 values of less than or equal to about 25 μg/ml)”. Further, the “MBC E. coli A.25922” value in series [1] was determined as 15 µg/mL. The “MBC P. aerug A.27853” value in series [2] is 30 µg/mL. For the same compound, the “MBC S. aur A.25923” value in series [3] came to 15 µg/mL. This compound also yielded a CC50 at 24 h in the series “in vitro [4]” of 100 µg/mL. In the series “in vitro [5]”, the HC50 at 1 h worked out at 350 µg/mL.
As to FAKLLALALKLKL-NH2 [compound 94], the “Anti-cancer (preferred peptide)” value in the series on cancer cell lines is “X (Preferred anticancer peptides can be selected as having LD50 values of less than or equal to about 25 μg/ml)”. In addition, the “MBC E. coli A.25922” value in series [1] is over 50 µg/mL. Also, in series [2], the “MBC P. aerug A.27853” value was over 50 µg/mL. Further, the “MFC Candida A.10231” value in series [6] is over 50 µg/mL. Moreover, the “MBC S. aur A.25923” value in series [3] was over 50 µg/mL.
Take FALALKALKKALKKLKKALKKAL-OH [compound 1]: the “Anti-cancer (preferred peptide)” value in the series with cancer cell lines is “X (Preferred anticancer peptides can be selected as having LD50 values of less than or equal to about 25 μg/ml)”. In series [1], the “MBC E. coli A.25922” value worked out at 25 µg/mL. In series [2], the “MBC P. aerug A.27853” value worked out at 30 µg/mL. Also, in series [6], the “MFC Candida A.10231” value was over 50 µg/mL. Further, the “MBC S. aur A.25923” value in series [3] worked out at 25 µg/mL. Moreover, half-maximal cytotoxicity in the series “in vitro [4]” (CC50 at 24 h) was put at 27 µg/mL. In addition, the HC50 at 1 h in the series “in vitro [5]” was found to be 20 µg/mL.
Take “FAKKLAKKLKKLAKKLAKKWKL-NH2 [compound 70]”: the “Anti-cancer (preferred peptide)” value with cancer cell lines is “X (Preferred anticancer peptides can be selected as having LD50 values of less than or equal to about 25 μg/ml)”. In addition, in series [1], the “MBC E. coli A.25922” value worked out at 40 µg/mL. For the same compound, the “MBC P. aerug A.27853” value in series [2] was 30 µg/mL. In series [6], the “MFC Candida A.10231” value is over 50 µg/mL. For the same compound, in series [3], the “MBC S. aur A.25923” value turned out to be 40 µg/mL.
As for FAKKALKALKKL-NH2 [compound 47], in the series with cancer cell lines, the “Anti-cancer (preferred peptide)” value was “X (Preferred anticancer peptides can be selected as having LD50 values of less than or equal to about 25 μg/ml)”. Also, the “MBC E. coli A.25922” value in series [1] was over 50 µg/mL. In addition, the “MBC P. aerug A.27853” value in series [2] is over 50 µg/mL. For the same compound, the “MFC Candida A.10231” value in series [6] is over 50 µg/mL. Besides, the “MBC S. aur A.25923” value in series [3] was over 50 µg/mL.
Take FAKALAKLAKKLL-NH2 [compound 92]: the “Anti-cancer (preferred peptide)” value in the series with cancer cell lines is “X (Preferred anticancer peptides can be selected as having LD50 values of less than or equal to about 25 μg/ml)”. For the same compound, in series [1], the “MBC E. coli A.25922” value stood at 40 µg/mL. In addition, in series [2], the “MBC P. aerug A.27853” value stood at 25 µg/mL. For the same compound, the “MFC Candida A.10231” value in series [6] is 25 µg/mL. The “MBC S. aur A.25923” value in series [3] came out at 15 µg/mL. Besides, the “Anti-fungal (preferred peptide)” value in the series on fungal is recorded as “X (Preferred antifungal peptides can be selected as having MIC or MBC values of less than or equal to about 25 μg/ml)”.
Consider “FALAAKALKKLAKKLKKLAKKAL-NH2 [compound 23]”, for which the “Anti-cancer (preferred peptide)” value in the series with cancer cell lines is given as “X (Preferred anticancer peptides can be selected as having LD50 values of less than or equal to about 25 μg/ml)”. Further, in series [1], the “MBC E. coli A.25922” value was determined as 15 µg/mL. The “MBC P. aerug A.27853” value in series [2] came out at 25 µg/mL. Moreover, the “MFC Candida A.10231” value in series [6] is over 50 µg/mL. In series [3], the “MBC S. aur A.25923” value was 30 µg/mL.
Turning to VAKALKALLKALKAL-NH2 [compound 501], in the series with cancer cell lines, the “Anti-cancer (preferred peptide)” value is on record as “X (Preferred anticancer peptides can be selected as having LD50 values of less than or equal to about 25 μg/ml)”. The same compound yielded a 50% cytotoxic concentration (CC50) at 24 h in the series “in vitro [4]” of 26 µg/mL. Besides, the HC50 at 1 h in the series “in vitro [5]” amounted to 15 µg/mL.
As to `CC(C)C[C@H](NC(=O)[C@H](C)NC(=O)[C@H](CCCCN)NC(=O)[C@H](CCCCN)NC(=O)[C@H](CC(C)C)NC(=O)[C@H](C)NC(=O)[C@H](CCCCN)NC(=O)[C@H](CCCCN)NC(=O)[C@H](CC(C)C)NC(=O)[C@@H](CCCCN)NC(=O)[C@@H](CCCCN)NC(=O)[C@H](CC(C)C)NC(=O)[C@H](C)NC(=O)[C@H](CCCCN)NC(=O)[C@H](CCCCN)NC(=O)[C@H](CC(C)C)NC(=O)[C@H](C)NC(=O)[C@H](CCCCN)NC(=O)[C@H](CC(C)C)NC(=O)[C@H](C)NC(=O)[C@H](CC(C)C)NC(=O)[C@H](C)NC(=O)[C@@H](N)Cc1ccccc1)C(=O)O` [compound 37] (H-FALALKALKKAL[dK][dK]LKKALKKAL-OH; N-terminus assumed), the “Anti-cancer (preferred peptide)” value in the series with cancer cell lines is “X (Preferred anticancer peptides can be selected as having LD50 values of less than or equal to about 25 μg/ml)”. Also, the “MBC E. coli A.25922” value in series [1] was 8 µg/mL (≈ 3.15 µM). Further, in series [2], the “MBC P. aerug A.27853” value is 8 µg/mL (≈ 3.15 µM). Also, the “MFC Candida A.10231” value in series [6] is over 50 µg/mL. Besides, in series [3], the “MBC S. aur A.25923” value came to 40 µg/mL (≈ 15.8 µM).
As to VAKLLAKALKKLL-NH2 [compound 506], the “Anti-cancer (preferred peptide)” value with cancer cell lines is “X (Preferred anticancer peptides can be selected as having LD50 values of less than or equal to about 25 μg/ml)”. In the series “in vitro [4]”, this compound came in with a 50% cytotoxic concentration (CC50) at 24 h of 75 µg/mL. In addition, the HC50 at 1 h in the series “in vitro [5]” amounted to 120 µg/mL.
For the compound FALAKLAKKAKAKLKKALKAL-NH2 [compound 26], the “Anti-cancer (preferred peptide)” value in the series on cancer cell lines is recorded as “X (Preferred anticancer peptides can be selected as having LD50 values of less than or equal to about 25 μg/ml)”. Moreover, the “MBC E. coli A.25922” value in series [1] is over 80 µg/mL. Besides, the “MBC P. aerug A.27853” value in series [2] is over 40 µg/mL. Further, in series [6], the “MFC Candida A.10231” value was over 50 µg/mL. For the same compound, the “MBC S. aur A.25923” value in series [3] was over 40 µg/mL. For the same compound, the “Anti-fungal (preferred peptide)” value with fungal is on record as “X (Preferred antifungal peptides can be selected as having MIC or MBC values of less than or equal to about 25 μg/ml)”.
As for FAKKLAKKLAKLL-NH2 [compound 75], the “Anti-cancer (preferred peptide)” value in the series on cancer cell lines is “X (Preferred anticancer peptides can be selected as having LD50 values of less than or equal to about 25 μg/ml)”. Also, in series [1], the “MBC E. coli A.25922” value was 40 µg/mL. In addition, in series [2], the “MBC P. aerug A.27853” value turned out to be 30 µg/mL. Further, in series [6], the “MFC Candida A.10231” value was 30 µg/mL. In addition, the “MBC S. aur A.25923” value in series [3] is over 55 µg/mL.
For the compound `CC(C)C[C@H](NC(=O)[C@H](C)NC(=O)[C@H](CC(C)C)NC(=O)[C@H](C)NC(=O)[C@H](CC(C)C)NC(=O)[C@H](CCCCN)NC(=O)[C@H](C)NC(=O)[C@H](CC(C)C)NC(=O)[C@H](CCCCN)NC(=O)[C@H](CCCCN)NC(=O)[C@H](C)NC(=O)[C@H](CC(C)C)NC(=O)[C@H](CCCCN)NC(=O)[C@H](C)NC(=O)[C@H](CC(C)C)NC(=O)[C@H](CCCCN)NC(=O)[C@H](CCCCN)NC(=O)[C@H](C)NC(=O)[C@@H](N)Cc1ccccc1)C(N)=O` [compound 36], in the series with cancer cell lines, the “Anti-cancer (preferred peptide)” value is “X (Preferred anticancer peptides can be selected as having LD50 values of less than or equal to about 25 μg/ml)”. Further, the “MBC E. coli A.25922” value in series [1] is 30 µg/mL (≈ 14.7 µM). Moreover, in series [2], the “MBC P. aerug A.27853” value was 15 µg/mL (≈ 7.36 µM). Moreover, the “MFC Candida A.10231” value in series [6] is over 40 µg/mL. Moreover, in series [3], the “MBC S. aur A.25923” value was 10 µg/mL (≈ 4.91 µM). In addition, it took 19 µg/mL (≈ 9.32 µM) to reach half-maximal cytotoxicity in “in vitro [4]” (CC50 at 24 h). The HC50 at 1 h in the series “in vitro [5]” turned out to be 12 µg/mL.
Regarding FAKKLAKLALKLAKL-NH2 [compound 44], in the series with cancer cell lines, the “Anti-cancer (preferred peptide)” value was “X (Preferred anticancer peptides can be selected as having LD50 values of less than or equal to about 25 μg/ml)”. Further, the “MBC E. coli A.25922” value in series [1] was determined as 10 µg/mL. For the same compound, the “MBC P. aerug A.27853” value in series [2] is 55 µg/mL. Moreover, the “MFC Candida A.10231” value in series [6] is over 50 µg/mL. For the same compound, the “MBC S. aur A.25923” value in series [3] turned out to be 30 µg/mL.
In the case of FAKFLAKFLKKAL-NH2 [compound 111], the “Anti-cancer (preferred peptide)” value in the series on cancer cell lines was “X (Preferred anticancer peptides can be selected as having LD50 values of less than or equal to about 25 μg/ml)”. Further, in series [1], the “MBC E. coli A.25922” value is 30 µg/mL. In addition, the “MFC Candida A.10231” value in series [6] is reported as “INACT”. The “MBC S. aur A.25923” value in series [3] was determined as 40 µg/mL. In addition, the CC50 at 24 h in “in vitro [4]” came to 25 µg/mL. In “in vitro [5]”, the HC50 at 1 h was determined as 5 µg/mL.
